Test results published in patent US9096560B2, “5-heterocyclylalkyl-3-hydroxy-2-phenylcyclopent-2-enones as herbicides” (Syngenta Limited, priority 2008, dated 2015).

Experiments:
Type in all cases: in vivo
Lolium perenne (LOLPE) [1] = assay: Example B pre-emergence herbicidal test, LOLPE; settings: Lolium perenne, 312 h, rate 250 g/ha, evaluated after 13 days, 100=total damage to plant, 0=no damage to plant
How it was run: (§1)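 Plants were rated 13 days after treatment, 0 = no damage to 100 = total damage. They were grown in a glasshouse at 24/16 °C, 14 h light, 65% humidity and watered twice daily. Pre-emergence spray was applied one day after sowing, formulated in acetone/water 50:50 with 0.5% Tween 20.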

[2] = system: Alopecurus myosuroides (ALOMY); assay: Example B pre-emergence herbicidal test, ALOMY; settings: Alopecurus myosuroides, 312 h, rate 250 g/ha, evaluated after 13 days, 100=total damage to plant, 0=no damage to plant
How it was run: as §1

[3] = system: Echinochloa crus-galli (ECHCG); assay: Example B pre-emergence herbicidal test, ECHCG; settings: Echinochloa crus-galli, 312 h, rate 250 g/ha, evaluated after 13 days, 100=total damage to plant, 0=no damage to plant
How it was run: as §1

Avena fatua (AVEFA) [4] = assay: Example B pre-emergence herbicidal test, AVEFA; settings: Avena fatua, 312 h, rate 250 g/ha, evaluated after 13 days, 100=total damage to plant, 0=no damage to plant
How it was run: as §1

Lolium perenne (LOLPE) [5] = assay: Example B post-emergence herbicidal test, LOLPE; settings: Lolium perenne, 312 h, rate 250 g/ha, evaluated after 13 days, scale 0-100, read-out: Post-emergence activity LOLPE (100=total damage to plant; 0=no damage to plant)
How it was run: (§2)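 Plants grown 8 days in glasshouse (24/16 °C day/night, 14 h light, 65% humidity), then sprayed with aqueous solution from acetone/water (50:50) formulation with 0.5% Tween 20. Damage scored 13 days later on a 0–100 scale (100 = total damage).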

[6] = system: Alopecurus myosuroides (ALOMY); assay: Example B post-emergence herbicidal test, ALOMY; settings: Alopecurus myosuroides, 312 h, rate 250 g/ha, evaluated after 13 days, scale 0-100, read-out: Post-emergence activity ALOMY (100=total damage to plant; 0=no damage to plant)
How it was run: as §2

[7] = system: Echinochloa crus-galli (ECHCG); assay: Example B post-emergence herbicidal test, ECHCG; settings: Echinochloa crus-galli, 312 h, rate 250 g/ha, evaluated after 13 days, scale 0-100, read-out: Post-emergence activity ECHCG (100=total damage to plant; 0=no damage to plant)
How it was run: as §2

Avena fatua (AVEFA) [8] = assay: Example B post-emergence herbicidal test, AVEFA; settings: Avena fatua, 312 h, rate 250 g/ha, evaluated after 13 days, scale 0-100, read-out: Post-emergence activity AVEFA (100=total damage to plant; 0=no damage to plant)
How it was run: as §2

[9] = system: Winter Wheat variety 'Hereward'; assay: Example C crop damage test on Winter Wheat, post-emergence, no safener; settings: Triticum aestivum, 312 h, rate 250 g/ha, evaluated after 13 days, read-out: Winter Wheat (Hereward) damage (100=total damage to plant; 0=no damage to plant)
Experimental: Seeds of the Winter Wheat variety ‘Hereward’ were sown in standard soil in pots. After 8 days cultivation under controlled conditions in a glasshouse (at 24/16° C., day/night; 14 hours light; 65% humidity), the plants were sprayed with an aqueous spray solution derived from the formulation of the technical active ingredient in acetone/water (50:50) solution containing 0.5% Tween 20 (polyoxyethelyene sorbitan monolaurate, CAS RN 9005-64-5). The test plants were then grown in a glasshouse under controlled conditions in a glasshouse (at 24/16° C., day/night; 14 hours light; 65% humidity) and watered twice daily. After 13 days for pre and post-emergence, the test was evaluated (100=total damage to plant; 0=no damage to plant).

[10] = system: Winter Wheat variety 'Hereward' seed treated with cloquintocet mexyl; assay: Example C crop damage test on Winter Wheat seed treated with safener cloquintocet mexyl, post-emergence; settings: rate 250 g/ha, seed treated with cloquintocet mexyl 0.5 grams per kilogram of dry seed, evaluated after 13 days
Experimental: Seeds of the Winter Wheat variety ‘Hereward’ were seed treated with a wettable powder formulation of the cereal herbicide safener, cloquintocet mexyl, at a rate of 0.5 grams per kilogram of dry seed prior to the initiation of glasshouse testing. One seed was sown per 1.5 inch plastic pot into a sandy loam soil at a depth of 1 cm, 8 days prior to application of the test compounds and was watered and grown under controlled conditions in a glasshouse (at 24/16° C., day/night; 14 hours light; 65% humidity). The plants were sprayed Post-emergence with an aqueous spray solution derived from the formulation of the technical active ingredient in acetone/water (50:50) solution containing 0.5% Tween 20 (polyoxyethelyene sorbitan monolaurate, CAS RN 9005-64-5). The test plants were then grown in a glasshouse under controlled conditions in a glasshouse (at 24/16° C., day/night; 14 hours light; 65% humidity) and watered twice daily. After 13 days for pre and post-emergence, the test was evaluated (100=total damage to plant; 0=no damage to plant).

| Structure (SMILES) | pest or weed control at 250 g/ha (Lolium perenne (LOLPE) [1]) [%] | pest or weed control at 250 g/ha [2] [%] | pest or weed control at 250 g/ha [3] [%] | pest or weed control at 250 g/ha (Avena fatua (AVEFA) [4]) [%] | pest or weed control at 250 g/ha (Lolium perenne (LOLPE) [5]) [%] | pest or weed control at 250 g/ha [6] [%] | pest or weed control at 250 g/ha [7] [%] | pest or weed control at 250 g/ha (Avena fatua (AVEFA) [8]) [%] | crop damage to winter wheat at 250 g/ha [9] [%] | Winter Wheat (Hereward) + cloquintocet mexyl damage (100=total damage to plant; 0=no damage to plant) [10] |
| --- | --- | --- | --- | --- | --- | --- | --- | --- | --- | --- |
| Cc1cc(-c2ccccc2)cc(C)c1C1C(=O)CC(CC2CCOCC2)C1=O (centres unmarked) [Compound T67] | 100 | 90 | 100 | 90 | 100 | 90 | 100 | 100 | 70 | 30 |
| Cc1cc(C)c(C2C(=O)CC(CC3CCN(C(=O)c4ccc(F)cc4)CC3)C2=O)c(C)c1 (centres unmarked) [Compound T75] | 80 | 30 | 70 | 70 | 100 | 90 | 90 | 100 | 60 | 50 |
| CCCC(=O)N1CCC(CC2CC(=O)C(c3c(C)cc(C)cc3C)C2=O)CC1 (centres unmarked) [Compound T84] | 90 | 50 | 60 | 50 | 100 | 90 | 90 | 100 | 70 | 60 |
| Cc1cc(C)c(C2C(=O)CC(CC3CCN(C(=O)C4CC4)CC3)C2=O)c(C)c1 (centres unmarked) [Compound T88] | 100 | 90 | 80 | 90 | 90 | 90 | 90 | 100 | 70 | 50 |
| COC(=O)N1CCC(CC2CC(=O)C(c3c(C)cc(C)cc3C)C2=O)CC1 (centres unmarked) [Compound T98] | 90 | 70 | 90 | 80 | 100 | 100 | 90 | 100 | 90 | 60 |
